Measured values from ChEMBL document CHEMBL2429737, “Synthesis and study of benzothiazole conjugates in the control of cell proliferation by modulating Ras/MEK/ERK-dependent pathway in MCF-7 cells” (Bioorg Med Chem Lett, 2013).
Calls of active or inactive are those of the source. The calls are words filed in the database; no cut-off is given here.

Legend:
[1] = test system: MCF-10A; test: Cytotoxicity against human MCF10A cells after 72 hrs by MTT assay; format: cell-based
[2] = test system: MCF7; test: Cytotoxicity against human MCF7 cells after 48 hrs by SRB assay; format: functional; details: MCF7, 48 h
[3] = test system: MCF7; test: Selectivity index, ratio of IC50 for human MCF10A cells to IC50 for human MCF7 cells; format: functional
[4] = test system: MDA-MB-231; test: Cytotoxicity against human MDA-MB-231 cells after 72 hrs by MTT assay; format: functional, cell-based; details: MDA-MB-231, 72 h
[5] = test system: MDA-MB-231; test: Cytotoxicity against human MDA-MB-231 cells after 48 hrs by SRB assay; format: functional; details: MDA-MB-231, 48 h
[6] = test system: MCF7; test: Cytotoxicity against human MCF7 cells after 72 hrs by MTT assay; format: functional, cell-based; details: MCF7, 72 h
[7] = test system: MCF-10A; test: Selectivity index, ratio of IC50 for human MCF10A cells to IC50 for human MDA-MB-231 cells; format: functional
[8] = Cytotoxicity against HEK cells at 0.25 to 64 ug after 72 hrs by MTT assay; format: cell-based; details: human, hek293, 72 h
[9] = test system: MCF7; test: Induction of apoptosis in human MCF7 cells assessed as increase in caspase-9 activity at 2 uM after 24 hrs by fluorescence assay
[10] = test system: MCF7; test: Down regulation of integrin alphaVbeta3 protein expression in human MCF7 cells at 2 to 4 uM after 24 hrs by Western blotting analysis
[11] = test system: MCF7; test: Down regulation of VEGF protein expression in human MCF7 cells at 2 to 4 uM after 24 hrs by Western blotting analysis; format: functional, cell-based
[12] = test system: MCF7; test: Down regulation of MEK1 protein expression in human MCF7 cells at 2 to 4 uM after 24 hrs by Western blotting analysis; format: functional, cell-based
[13] = molecular target: Mitogen-activated protein kinase; ERK1/ERK2 (Homo sapiens) (UniProt P27361+P28482); test: Inhibition of ERK1/2 phosphorylation in human MCF7 cells at 2 to 4 uM after 24 hrs by Western blotting analysis; format: cell-based
Sequence of Mitogen-activated protein kinase; ERK1/ERK2 (Homo sapiens) (P27361 whole entry, looked up): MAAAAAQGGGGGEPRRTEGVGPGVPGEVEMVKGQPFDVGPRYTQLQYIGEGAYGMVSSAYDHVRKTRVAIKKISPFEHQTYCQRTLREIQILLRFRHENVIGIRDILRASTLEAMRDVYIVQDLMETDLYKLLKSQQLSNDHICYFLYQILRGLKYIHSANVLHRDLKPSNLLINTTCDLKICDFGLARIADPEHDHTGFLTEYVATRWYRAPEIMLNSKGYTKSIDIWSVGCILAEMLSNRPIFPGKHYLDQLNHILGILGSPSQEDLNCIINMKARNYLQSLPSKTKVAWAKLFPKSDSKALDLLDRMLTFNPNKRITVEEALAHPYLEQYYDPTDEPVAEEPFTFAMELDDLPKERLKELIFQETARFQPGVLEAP
Sequence of Mitogen-activated protein kinase; ERK1/ERK2 (Homo sapiens) (P28482 whole entry, looked up): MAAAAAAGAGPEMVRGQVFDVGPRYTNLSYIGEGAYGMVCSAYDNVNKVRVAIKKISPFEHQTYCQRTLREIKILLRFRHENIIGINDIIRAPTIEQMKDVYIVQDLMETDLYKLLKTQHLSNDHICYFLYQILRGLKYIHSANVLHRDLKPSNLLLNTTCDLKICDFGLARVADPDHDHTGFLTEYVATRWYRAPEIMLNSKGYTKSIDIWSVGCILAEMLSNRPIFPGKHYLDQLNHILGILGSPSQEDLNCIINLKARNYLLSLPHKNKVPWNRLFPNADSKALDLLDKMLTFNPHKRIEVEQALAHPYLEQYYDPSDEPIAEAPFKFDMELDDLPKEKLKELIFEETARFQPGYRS

[14] = test system: MCF7; test: Cytotoxicity against human MCF7 cells at 4 uM after 72 hrs by MTT assay; format: functional
[15] = test system: MCF7; test: Down regulation of Ras protein expression in human MCF7 cells at 2 to 4 uM after 24 hrs by Western blotting analysis; format: functional, cell-based

Structure (SMILES)	IC50 [1] [µM]	GI50 [2] [µM]	Ratio IC50 [3]	IC50 [4] [µM]	GI50 [5] [µM]	IC50 [6] [µM]	Ratio IC50 [7]	Activity [8]	Activity [9]	Activity [10]	Activity [11]	Activity [12]	inhibition [13]	Activity [14] [%]	Activity [15]
Cc1ccc(-c2ccc(C)n2-c2ccc(-c3nc4ccccc4s3)cc2)cc1	30.6	2.5	9.1	17.8	4.4	3.1	1.71	Non-toxic	–	–	–	–	–	–	–
Cc1ccc(-c2ccc(F)cc2)n1-c1ccc(-c2nc3ccccc3s2)cc1	40	2.62	12.57	11.8	4.34	3.18	3.4	Non-toxic	–	–	–	–	–	–	–
COc1ccc(-c2ccc(C)n2-c2ccc(-c3nc4ccccc4s3)cc2)cc1	36.3	2.78	11.13	14.8	3.99	3.25	2.44	Non-toxic	–	–	–	–	–	–	–
COc1ccc(-c2ccc(C)n2-c2ccc(-c3nc4ccc(OC)cc4s3)cc2)cc1	30.6	3.09	6.36	12.7	4.12	4.83	2.23	Non-toxic	–	–	–	–	–	–	–
Cc1ccc(-c2ccc(C)n2-c2ccc(-c3nc4ccc(F)cc4s3)cc2)cc1	33.6	2.15	11.3	16.7	3.14	2.97	2.01	Non-toxic	–	–	–	–	–	–	–
COc1cc2nc(-c3ccc(-n4c(C)ccc4-c4ccc(F)cc4)cc3)sc2c(OC)c1OC	43.2	2.67	14.83	13.1	3.94	2.91	3.29	Non-toxic	–	–	–	–	–	–	–
COc1ccc(-c2ccc(C)n2-c2ccc(-c3nc4ccc(F)cc4s3)cc2)cc1	37.8	2.12	14.85	19	3.07	2.54	1.98	Non-toxic	–	–	–	–	–	–	–
COc1ccc2nc(-c3ccc(-n4c(C)ccc4-c4ccc(F)cc4)cc3)sc2c1	38.3	2.48	13.67	13.8	4.06	2.8	2.77	Non-toxic	–	–	–	–	–	–	–
COc1ccc2nc(-c3ccc(-n4c(C)ccc4-c4cc(OC)c(OC)c(OC)c4)cc3)sc2c1	37.8	0.92	24.84	12.9	1.76	1.52	2.92	Non-toxic	Active	Active	Active	Active	Active	50	Active
COc1ccc2nc(-c3ccc(-n4c(C)ccc4-c4ccc([N+](=O)[O-])cc4)cc3)sc2c1	34.9	3.17	25.3	12.7	4.56	–	2.74	Non-toxic	–	–	–	–	–	–	–
COc1ccc2nc(-c3ccc(-n4c(C)ccc4-c4ccc(C)cc4)cc3)sc2c1	34	2.57	11.92	20.5	4.01	2.85	1.65	Non-toxic	–	–	–	–	–	–	–
COc1ccc(-c2ccc(C)n2-c2ccc(-c3nc4cc(OC)c(OC)c(OC)c4s3)cc2)cc1	43.9	1.23	19.945	12.5	2.24	2.2	3.5	Non-toxic	–	–	–	–	–	50	–
COc1cc(-c2ccc(C)n2-c2ccc(-c3nc4ccccc4s3)cc2)cc(OC)c1OC	38.8	2.34	8.87	16	3.45	4.37	2.42	Non-toxic	–	–	–	–	–	–	–
COc1cc(-c2ccc(C)n2-c2ccc(-c3nc4ccc(F)cc4s3)cc2)cc(OC)c1OC	40	1.41	16.93	15.4	3	2.36	2.6	Non-toxic	–	–	–	–	–	–	–
Cc1ccc(-c2ccc(F)cc2)n1-c1ccc(-c2nc3ccc(F)cc3s2)cc1	37.8	1.79	13.48	14.1	3.03	2.8	2.68	Non-toxic	–	–	–	–	–	–	–
Cc1ccc(-c2ccc([N+](=O)[O-])cc2)n1-c1ccc(-c2nc3ccccc3s2)cc1	38.8	2.54	12.47	12.1	3.9	3.11	3.2	Non-toxic	–	–	–	–	–	–	–
COc1cc2nc(-c3ccc(-n4c(C)ccc4-c4ccc(C)cc4)cc3)sc2c(OC)c1OC	42.5	2.91	13.66	12.3	4.14	3.11	3.45	Non-toxic	–	–	–	–	–	–	–
COc1cc([C@@H]2c3cc4c(cc3[C@@H](O[C@@H]3O[C@@H]5CO[C@@H](C)O[C@H]5[C@H](O)[C@H]3O)[C@H]3COC(=O)[C@H]23)OCO4)cc(OC)c1O [ETOPOSIDE]	36.3	0.87	30.21	1.5	1.67	1.2	24.17	–	Active	Active	Active	Active	Active	–	Active
Cc1ccc(-c2ccc([N+](=O)[O-])cc2)n1-c1ccc(-c2nc3ccc(F)cc3s2)cc1	39	0.918	16.4	17	1.67	2.37	2.29	Non-toxic	–	–	–	–	–	–	–
